Like-named read-outs stand apart in the source and are kept apart here.

The results in this text go back to patent publication US20260193264A1, “BENZOYPARAZINE PYRAZINES AND THEIR USES” (FOGHORN THERAPEUTICS INC., priority 2022, published 2026).

Assay [1] concerns the target T1, HiBiT-BRM fusion protein in stable HeLa cell line (Homo sapiens, UniProt P51531).
T1 construct: expressed in transfected cells
In words: HiBiT-BRM cell-based degradation assay (Nano-Glo HiBiT Lytic Detection, 24 h). Further details: DC50: scale not given here. Conditions: HeLa HiBiT-BRM cells; for DC50: read-out: BRM HiBit Degradation IC50; for BRM HiBit Degradation Maximum (%): top dose 30 μM. In a few lines: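 Percent degradation was scaled between DMSO-treated cells and cells given 2 μM of a known BRM/BRG1 degrader. Readout was NanoBiT luminescence after lytic detection. HeLa cells stably expressing HiBiT-BRM were dosed for 24 h, 10 points, 3-fold steps from 30 μM final, in duplicate.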
Background: The HiBiT peptide binds its large partner to form an active luciferase.

Assay [2] has as its target T2, HiBit-BRG1 fusion protein in stable HeLa cell line expressing HiBit-BRG1 and LgBit (Homo sapiens, UniProt P51532).
T2 construct: expressed in transfected cells
In words: HiBiT-BRG1 cell-based degradation assay (Nano-Glo HiBiT, 24 h). The note with it: HeLa HiBit-BRG1/LgBit cells; for DC50: read-out: BRMG1 HiBit Degradation IC50; for Dmax: top dose 30 μM, read-out: BRG1 HiBit Degradation Maximum (%). The gist of the method:
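Degradation calculated from NanoBiT luminescence relative to DMSO-treated cells (high) and cells given 2 μM known BRM/BRG1 degrader (low). HeLa cells stably expressing HiBiT-BRG1 plus LgBiT were exposed to compound for 24 h before lytic HiBiT detection.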

T2 sequence (P51532 whole entry, the tested form may be a part): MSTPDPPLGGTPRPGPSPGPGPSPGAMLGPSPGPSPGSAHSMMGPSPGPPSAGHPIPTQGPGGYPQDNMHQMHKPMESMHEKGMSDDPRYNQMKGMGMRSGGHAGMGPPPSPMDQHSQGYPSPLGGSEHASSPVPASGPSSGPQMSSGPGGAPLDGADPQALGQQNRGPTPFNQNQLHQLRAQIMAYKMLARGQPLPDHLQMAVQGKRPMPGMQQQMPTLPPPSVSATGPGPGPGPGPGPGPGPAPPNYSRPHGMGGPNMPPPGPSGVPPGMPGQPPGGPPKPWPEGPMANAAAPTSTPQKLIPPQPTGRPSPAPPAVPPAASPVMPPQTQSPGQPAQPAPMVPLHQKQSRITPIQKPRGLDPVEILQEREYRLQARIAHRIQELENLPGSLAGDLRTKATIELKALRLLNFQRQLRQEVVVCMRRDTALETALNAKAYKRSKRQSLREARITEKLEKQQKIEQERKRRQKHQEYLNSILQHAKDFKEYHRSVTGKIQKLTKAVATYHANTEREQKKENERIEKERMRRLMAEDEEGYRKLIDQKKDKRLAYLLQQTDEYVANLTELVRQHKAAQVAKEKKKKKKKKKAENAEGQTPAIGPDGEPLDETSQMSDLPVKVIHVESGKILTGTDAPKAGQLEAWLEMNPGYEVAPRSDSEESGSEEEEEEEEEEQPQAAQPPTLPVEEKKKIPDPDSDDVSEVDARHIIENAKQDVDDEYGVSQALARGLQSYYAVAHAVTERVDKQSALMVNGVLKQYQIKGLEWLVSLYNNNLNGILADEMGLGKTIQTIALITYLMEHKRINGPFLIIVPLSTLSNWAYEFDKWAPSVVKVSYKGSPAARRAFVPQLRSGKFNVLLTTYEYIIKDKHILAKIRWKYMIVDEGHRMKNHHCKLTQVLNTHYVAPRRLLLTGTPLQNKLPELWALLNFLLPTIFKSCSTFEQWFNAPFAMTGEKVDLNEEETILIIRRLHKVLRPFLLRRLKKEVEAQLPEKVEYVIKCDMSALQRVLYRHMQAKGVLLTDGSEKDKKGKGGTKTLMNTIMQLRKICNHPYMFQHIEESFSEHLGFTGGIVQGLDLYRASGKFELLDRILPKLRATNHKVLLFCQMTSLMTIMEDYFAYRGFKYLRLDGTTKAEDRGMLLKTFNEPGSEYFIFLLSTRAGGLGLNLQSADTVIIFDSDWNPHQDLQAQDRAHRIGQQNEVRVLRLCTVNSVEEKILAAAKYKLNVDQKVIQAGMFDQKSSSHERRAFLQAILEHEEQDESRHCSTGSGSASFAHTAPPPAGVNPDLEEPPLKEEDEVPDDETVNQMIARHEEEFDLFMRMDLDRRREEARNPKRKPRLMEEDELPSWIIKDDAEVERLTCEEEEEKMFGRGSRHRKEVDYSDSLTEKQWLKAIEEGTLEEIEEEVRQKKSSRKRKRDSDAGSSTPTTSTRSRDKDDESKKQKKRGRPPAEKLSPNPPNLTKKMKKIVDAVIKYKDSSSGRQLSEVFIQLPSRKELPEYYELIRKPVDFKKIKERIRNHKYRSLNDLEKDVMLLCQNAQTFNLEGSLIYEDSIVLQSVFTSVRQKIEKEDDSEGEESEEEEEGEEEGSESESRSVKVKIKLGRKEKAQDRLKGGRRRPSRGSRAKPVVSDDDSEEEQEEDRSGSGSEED
T1 sequence (P51531 whole entry, the tested form may be a part): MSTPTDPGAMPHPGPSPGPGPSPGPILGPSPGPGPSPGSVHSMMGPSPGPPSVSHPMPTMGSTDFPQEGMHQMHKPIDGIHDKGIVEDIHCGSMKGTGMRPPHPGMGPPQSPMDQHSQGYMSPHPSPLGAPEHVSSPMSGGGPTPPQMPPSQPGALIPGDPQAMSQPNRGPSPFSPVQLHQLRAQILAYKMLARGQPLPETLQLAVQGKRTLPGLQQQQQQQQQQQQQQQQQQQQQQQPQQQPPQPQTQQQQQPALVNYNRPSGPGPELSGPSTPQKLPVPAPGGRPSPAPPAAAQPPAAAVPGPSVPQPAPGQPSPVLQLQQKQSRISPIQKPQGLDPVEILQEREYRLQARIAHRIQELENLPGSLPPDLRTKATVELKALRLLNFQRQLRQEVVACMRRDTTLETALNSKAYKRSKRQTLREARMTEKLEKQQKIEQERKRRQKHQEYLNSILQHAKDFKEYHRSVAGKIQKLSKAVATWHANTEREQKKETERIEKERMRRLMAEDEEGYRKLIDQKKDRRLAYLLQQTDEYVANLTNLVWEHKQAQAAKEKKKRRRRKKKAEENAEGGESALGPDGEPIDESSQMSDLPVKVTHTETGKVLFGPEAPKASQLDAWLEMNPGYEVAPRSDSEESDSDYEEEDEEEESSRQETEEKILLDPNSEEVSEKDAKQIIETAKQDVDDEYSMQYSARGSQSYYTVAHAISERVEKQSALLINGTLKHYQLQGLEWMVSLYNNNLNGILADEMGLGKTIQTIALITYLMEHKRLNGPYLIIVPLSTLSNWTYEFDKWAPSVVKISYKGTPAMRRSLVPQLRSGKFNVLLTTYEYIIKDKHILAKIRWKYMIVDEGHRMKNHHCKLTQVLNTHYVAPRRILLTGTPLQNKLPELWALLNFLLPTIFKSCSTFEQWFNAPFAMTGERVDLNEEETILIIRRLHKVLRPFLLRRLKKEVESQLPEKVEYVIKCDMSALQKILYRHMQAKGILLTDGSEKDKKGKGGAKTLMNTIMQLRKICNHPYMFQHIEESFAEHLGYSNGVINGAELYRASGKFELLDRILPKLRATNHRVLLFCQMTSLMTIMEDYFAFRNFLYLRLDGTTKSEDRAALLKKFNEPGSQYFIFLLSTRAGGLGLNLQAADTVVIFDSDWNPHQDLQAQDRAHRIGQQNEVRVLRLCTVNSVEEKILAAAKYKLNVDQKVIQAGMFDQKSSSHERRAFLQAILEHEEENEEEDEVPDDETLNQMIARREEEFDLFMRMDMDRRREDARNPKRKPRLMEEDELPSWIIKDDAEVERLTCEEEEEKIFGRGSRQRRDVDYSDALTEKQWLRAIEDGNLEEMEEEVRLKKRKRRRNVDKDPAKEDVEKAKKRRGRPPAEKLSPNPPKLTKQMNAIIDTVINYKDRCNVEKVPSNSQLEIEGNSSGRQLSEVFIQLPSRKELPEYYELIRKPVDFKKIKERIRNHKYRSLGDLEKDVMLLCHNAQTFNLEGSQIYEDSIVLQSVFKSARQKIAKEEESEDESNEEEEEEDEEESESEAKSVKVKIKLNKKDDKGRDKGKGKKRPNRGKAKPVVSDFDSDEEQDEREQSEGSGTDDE

Regarding `Cc1cc2cc(-c3ccccc3O)nnc2cc1N1CC2(CN(c3cc([C@H](C(=O)N4C[C@H](O)C[C@H]4C(=O)N[C@@H](C)c4ccc(-c5scnc5C)cc4)C(C)C)on3)C2)C1` [Compound 121, (2S,4R)-4-hydroxy-1-((R)-2-(3-(6-(3-(2-hydroxyphenyl)-6-methylcinnolin-7-yl)-2,6-diazaspiro[3.3]heptan-2-yl)isoxazol-5-yl)-3-methylbutanoyl)-N-((S)-1-(4-(4-methylthiazol-5-yl)phenyl)ethyl)pyrrolidine-2-carboxamide], in assay [1], the DC50 is under 10 nM and the “BRM HiBit Degradation Maximum (%)” value is reported as “A (“A” indicates maximum degradation ≥75%)”. Further, in assay [2], the DC50 was under 10 nM and the Dmax is over 75%.

For `COc1cc2cc(-c3ccccc3O)nnc2cc1CN1CC[C@@H](N2CCN(c3cc([C@H](C(=O)N4C[C@H](O)C[C@H]4C(=O)N[C@@H](C)c4ccc(-c5scnc5C)cc4)C(C)C)on3)CC2)C(F)(F)C1` [Compound 218, (2S,4R)-1-[(2R)-2-(3-{4-[(4R)-3,3-difluoro-1-{[3-(2-hydroxyphenyl)-6-methoxycinnolin-7-yl]methyl}piperidin-4-yl]piperazin-1-yl}-1,2-oxazol-5-yl)-3-methylbutanoyl]-4-hydroxy-N-[(1S)-1-[4-(4-methyl-1,3-thiazol-5-yl)phenyl]ethyl]pyrrolidine-2-carboxamide], in assay [1], the DC50 was under 10 nM and the “BRM HiBit Degradation Maximum (%)” value is given as “A (“A” indicates maximum degradation ≥75%)”. In assay [2], the DC50 was over 10 nM and the Dmax is over 75%.

For `Cc1ncsc1-c1ccc([C@H](C)NC(=O)[C@@H]2C[C@@H](O)CN2C(=O)[C@H](c2cc(-c3cnc(N4CC(c5cc(Cl)c6cc(-c7ccccc7O)nnc6c5)C4)nc3)no2)C(C)C)cc1` [Compound 35], in assay [1], the DC50 was over 100 nM and the “BRM HiBit Degradation Maximum (%)” value is recorded as “B (“B” indicates maximum degradation ≥50%)”. Also, the Dmax in assay [2] is under 50%.

As for `Cc1ncsc1-c1ccc([C@H](C)NC(=O)[C@@H]2C[C@@H](O)CN2C(=O)[C@@H](c2cc(N3CC4(CCN(c5ccc6cc(-c7ccccc7O)nnc6c5)C4)C3)no2)C(C)C)cc1` [Compound 132, (2S,4R)-4-hydroxy-1-((R)-2-(3-(6-(3-(2-hydroxyphenyl)cinnolin-7-yl)-2,6-diazaspiro[3.4]octan-2-yl)isoxazol-5-yl)-3-methylbutanoyl)-N-((S)-1-(4-(4-methylthiazol-5-yl)phenyl)ethyl)pyrrolidine-2-carboxamide], in assay [1], the DC50 is under 10 nM and the “BRM HiBit Degradation Maximum (%)” value is reported as “A (“A” indicates maximum degradation ≥75%)”. For the same compound, in assay [2], the DC50 is under 10 nM and the Dmax was over 75%.

On to `Cc1ncsc1-c1ccc([C@@H](C)NC(=O)[C@H]2C[C@H](O)CN2C(=O)[C@H](C(C)C)n2cc(N3CC4(CN(c5ccc6nnc(-c7ccccc7O)cc6c5)C4)C3)cn2)cc1` [Compound 258, (2R,4S)-4-hydroxy-1-[(2S)-2-(4-{6-[3-(2-hydroxyphenyl)cinnolin-6-yl]-2,6-diazaspiro[3.3]heptan-2-yl}pyrazol-1-yl)-3-methylbutanoyl]-N-[(1R)-1-[4-(4-methyl-1,3-thiazol-5-yl)phenyl]ethyl]pyrrolidine-2-carboxamide], for which, in assay [1], the DC50 was over 10 nM and the “BRM HiBit Degradation Maximum (%)” value is on record as “A (“A” indicates maximum degradation ≥75%)”. For the same compound, in assay [2], the DC50 is over 10 nM and the Dmax was over 50%.

For `Cc1ncsc1-c1ccc([C@H](C)NC(=O)[C@@H]2C[C@@H](O)CN2C(=O)[C@@H](c2cc(N3CC4(CCC(c5ccc6cc(-c7ccccc7O)nnc6c5)CC4)C3)no2)C(C)C)cc1` [Compound 87, (2S,4R)-4-hydroxy-1-((R)-2-(3-(7-(3-(2-hydroxyphenyl)cinnolin-7-yl)-2-azaspiro[3.5]nonan-2-yl)isoxazol-5-yl)-3-methylbutanoyl)-N-((S)-1-(4-(4-methylthiazol-5-yl)phenyl)ethyl)pyrrolidine-2-carboxamide], in assay [1], the DC50 was under 10 nM and the “BRM HiBit Degradation Maximum (%)” value is recorded as “A (“A” indicates maximum degradation ≥75%)”. In addition, in assay [2], the DC50 was under 10 nM and the Dmax is over 75%.

On to `Cc1ncsc1-c1ccc([C@H](C)NC(=O)[C@@H]2C[C@@H](O)CN2C(=O)[C@@H](c2cc(N3CC[C@@]4(CCN(c5ccc6cc(-c7ccccc7O)nnc6c5)C4)C3)no2)C(C)C)cc1` [Compound 99, (2S,4R)-4-hydroxy-1-((R)-2-(3-((R)-7-(3-(2-hydroxyphenyl)cinnolin-7-yl)-2,7-diazaspiro[4.4]nonan-2-yl)isoxazol-5-yl)-3-methylbutanoyl)-N-((S)-1-(4-(4-methylthiazol-5-yl)phenyl)ethyl)pyrrolidine-2-carboxamide], for which, in assay [1], the DC50 is under 10 nM and the “BRM HiBit Degradation Maximum (%)” value is recorded as “A (“A” indicates maximum degradation ≥75%)”. In assay [2], the DC50 was under 10 nM and the Dmax was over 75%.

As to `Cc1ncsc1-c1ccc([C@H](C)NC(=O)[C@@H]2C[C@@H](O)CN2C(=O)[C@H](c2cc(-c3cnc(N4CC(c5cc(F)c6cc(-c7ccccc7O)nnc6c5)C4)nc3)no2)C(C)C)cc1` [Compound 27], in assay [1], the DC50 was over 100 nM and the “BRM HiBit Degradation Maximum (%)” value is reported as “A (“A” indicates maximum degradation ≥75%)”. Moreover, the Dmax in assay [2] was under 50%.

In the case of `CC(C)[C@@H](C(=O)N1C[C@H](O)C[C@H]1C(=O)N[C@@H](C)c1ccc(F)cc1)n1cc(-c2ccc3nnc(-c4cccc(F)c4O)cc3c2)nn1` [Compound 177, (2S,4R)-1-((S)-2-(4-(3-(3-fluoro-2-hydroxyphenyl)cinnolin-6-yl)-1H-1,2,3-triazol-1-yl)-3-methylbutanoyl)-N-((S)-1-(4-fluorophenyl)ethyl)-4-hydroxypyrrolidine-2-carboxamide], in assay [1], the DC50 is under 10 nM and the “BRM HiBit Degradation Maximum (%)” value is recorded as “A (“A” indicates maximum degradation ≥75%)”. Further, in assay [2], the DC50 was over 10 nM and the Dmax was over 75%.

On to `Cc1ncsc1-c1ccc([C@H](C)NC(=O)[C@@H]2C[C@@H](O)CN2C(=O)C(C(C)C)n2cc(N3CC4CCN(c5ccc6cc(-c7ccccc7O)nnc6c5)CC43)nn2)cc1` (stereo partly drawn) [Compound 249, (2S,4R)-4-hydroxy-1-(2-(4-(3-(3-(2-hydroxyphenyl)cinnolin-7-yl)-3,8-diazabicyclo[4.2.0]octan-8-yl)-1H-1,2,3-triazol-1-yl)-3-methylbutanoyl)-N-((S)-1-(4-(4-methylthiazol-5-yl)phenyl)ethyl)pyrrolidine-2-carboxamide], for which, in assay [1], the DC50 is over 10 nM and the “BRM HiBit Degradation Maximum (%)” value is “A (“A” indicates maximum degradation ≥75%)”. Further, in assay [2], the DC50 is over 100 nM and the Dmax is over 75%.

In the case of `C#Cc1cc(N2CC3(C2)CN(c2cc([C@H](C(=O)N4C[C@H](O)C[C@H]4C(=O)N[C@@H](C)c4ccc(-c5scnc5C)cc4)C(C)C)on2)C3)cc2nnc(-c3ccccc3O)cc12` [Compound 240, (2S,4R)-1-((R)-2-(3-(6-(5-ethynyl-3-(2-hydroxyphenyl)cinnolin-7-yl)-2,6-diazaspiro[3.3]heptan-2-yl)isoxazol-5-yl)-3-methylbutanoyl)-4-hydroxy-N-((S)-1-(4-(4-methylthiazol-5-yl)phenyl)ethyl)pyrrolidine-2-carboxamide], in assay [1], the DC50 is under 10 nM and the “BRM HiBit Degradation Maximum (%)” value is on record as “A (“A” indicates maximum degradation ≥75%)”. The Dmax in assay [2] is under 50%.

On to `Cc1ncsc1-c1ccc([C@H](C)NC(=O)[C@@H]2C[C@@H](O)CN2C(=O)C(c2cc(N3CCC4(CN(c5ccc6cc(-c7ccccc7O)nnc6c5)C4)C(F)(F)C3)no2)C(C)C)cc1` (stereo partly drawn) [Compound 108, (2S,4R)-1-(2-(3-(5,5-difluoro-2-(3-(2-hydroxyphenyl)cinnolin-7-yl)-2,7-diazaspiro [3.5]nonan-7-yl)isoxazol-5-yl)-3-methylbutanoyl)-4-hydroxy-N-((S)-1-(4-(4-methylthiazol-5-yl)phenyl)ethyl)pyrrolidine-2-carboxamide], for which, in assay [1], the DC50 is under 10 nM and the “BRM HiBit Degradation Maximum (%)” value is on record as “A (“A” indicates maximum degradation ≥75%)”. In assay [2], the DC50 is over 10 nM and the Dmax was over 75%.

`Cc1ncsc1-c1ccc([C@H](C)NC(=O)[C@@H]2C[C@@H](O)CN2C(=O)[C@H](c2cc(-c3cnc(N4CC(c5cc6nnc(-c7ccccc7O)cc6cc5Cl)C4)nc3)no2)C(C)C)cc1` [Compound 31]: in assay [1] (given as a number), the DC50 turned out to be 243 nM. Moreover, the “BRM HiBit Degradation Maximum (%)” value in assay [1] was “A (“A” indicates maximum degradation ≥75%)”. Also, the Dmax in assay [2] was under 50%.

As for `CC(C)[C@@H](C(=O)N1C[C@H](O)C[C@H]1C(=O)NCc1ccccc1)c1cc(N2CC3(CN(c4ccc5cc(-c6ccccc6O)nnc5c4)C3)C2)no1` [Compound 111, (2S,4R)-N-benzyl-4-hydroxy-1-((R)-2-(3-(6-(3-(2-hydroxyphenyl)cinnolin-7-yl)-2,6-diazaspiro[3.3]heptan-2-yl)isoxazol-5-yl)-3-methylbutanoyl)pyrrolidine-2-carboxamide], in assay [1], the DC50 was under 10 nM and the “BRM HiBit Degradation Maximum (%)” value is on record as “A (“A” indicates maximum degradation ≥75%)”. In addition, the Dmax in assay [2] is under 50%.
